The record followed here is paper PMC6199744, “Development of Chemical Proteomics for the Folateome and Analysis of the Kinetoplastid Folateome” (ACS Infectious Diseases, 2018).

Molecules are shown by their SMILES. Where two headings read alike, the source gives them in different places.

Holding throughout (assay type): binding
Experiment [1] addresses T1, HeLa cell extract proteins (Homo sapiens, UniProt O60547).
T1 construct: endogenous in cells; host or cells: HeLa cell extract
T1 sequence (O60547 1-372): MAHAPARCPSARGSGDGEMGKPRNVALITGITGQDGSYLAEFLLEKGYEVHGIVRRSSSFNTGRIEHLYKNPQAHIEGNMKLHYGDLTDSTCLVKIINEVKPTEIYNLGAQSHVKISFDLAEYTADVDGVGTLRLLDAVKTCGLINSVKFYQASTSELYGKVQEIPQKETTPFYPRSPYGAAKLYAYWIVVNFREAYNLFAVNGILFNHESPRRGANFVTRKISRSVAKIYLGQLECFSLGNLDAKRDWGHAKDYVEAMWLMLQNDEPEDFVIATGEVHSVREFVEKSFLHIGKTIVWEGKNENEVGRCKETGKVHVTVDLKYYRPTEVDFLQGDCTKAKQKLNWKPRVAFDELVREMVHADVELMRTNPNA

In experiment [2] the target is T2, HeLa cell extract proteins (Homo sapiens, UniProt O75521).
T2 construct: endogenous in cells; host or cells: HeLa cell extract
T2 sequence (O75521 39-394): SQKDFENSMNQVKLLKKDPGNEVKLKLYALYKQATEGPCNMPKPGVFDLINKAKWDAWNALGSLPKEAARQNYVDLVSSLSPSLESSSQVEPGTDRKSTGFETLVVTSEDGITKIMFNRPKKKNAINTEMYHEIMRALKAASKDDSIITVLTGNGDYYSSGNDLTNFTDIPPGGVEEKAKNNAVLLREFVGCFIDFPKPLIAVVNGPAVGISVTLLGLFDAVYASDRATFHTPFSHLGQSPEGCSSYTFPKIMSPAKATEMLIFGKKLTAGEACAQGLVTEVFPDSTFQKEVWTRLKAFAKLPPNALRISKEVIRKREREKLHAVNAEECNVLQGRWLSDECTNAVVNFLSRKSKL

Experiment [3] addresses T3, HeLa cell extract proteins (Homo sapiens, UniProt P57678).
T3 construct: endogenous in cells; host or cells: HeLa cell extract
T3 sequence (P57678 1-1058): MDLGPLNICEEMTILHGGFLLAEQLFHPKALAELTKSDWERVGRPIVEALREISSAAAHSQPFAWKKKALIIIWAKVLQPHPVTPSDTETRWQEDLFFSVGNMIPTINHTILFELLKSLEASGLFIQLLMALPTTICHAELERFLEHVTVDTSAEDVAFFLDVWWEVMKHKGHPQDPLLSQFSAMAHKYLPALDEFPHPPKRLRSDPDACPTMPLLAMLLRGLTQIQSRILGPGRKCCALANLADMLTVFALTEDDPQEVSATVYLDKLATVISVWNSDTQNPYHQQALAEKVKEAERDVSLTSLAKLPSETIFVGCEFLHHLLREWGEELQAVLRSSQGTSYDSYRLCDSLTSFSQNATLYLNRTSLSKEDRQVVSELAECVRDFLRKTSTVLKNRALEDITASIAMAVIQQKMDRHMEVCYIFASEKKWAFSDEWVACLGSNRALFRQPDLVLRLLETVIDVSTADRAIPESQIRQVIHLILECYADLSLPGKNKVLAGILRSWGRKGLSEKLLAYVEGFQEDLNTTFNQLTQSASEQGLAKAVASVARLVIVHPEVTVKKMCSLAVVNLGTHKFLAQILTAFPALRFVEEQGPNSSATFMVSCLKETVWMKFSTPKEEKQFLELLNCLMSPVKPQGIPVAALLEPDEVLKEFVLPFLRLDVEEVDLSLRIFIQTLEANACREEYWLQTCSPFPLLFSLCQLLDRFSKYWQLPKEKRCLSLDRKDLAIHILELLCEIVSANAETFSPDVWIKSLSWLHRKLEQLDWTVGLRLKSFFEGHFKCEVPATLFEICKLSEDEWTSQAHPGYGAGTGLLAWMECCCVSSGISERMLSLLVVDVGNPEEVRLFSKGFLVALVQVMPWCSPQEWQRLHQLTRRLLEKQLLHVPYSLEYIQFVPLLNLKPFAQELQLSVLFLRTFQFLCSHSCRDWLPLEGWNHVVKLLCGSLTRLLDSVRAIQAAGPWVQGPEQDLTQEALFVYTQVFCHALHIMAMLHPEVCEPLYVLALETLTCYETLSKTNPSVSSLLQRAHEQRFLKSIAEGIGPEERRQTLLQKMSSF

The target of experiment [4] is T4, HeLa cell extract proteins (Homo sapiens, UniProt P12004).
T4 construct: endogenous in cells; host or cells: HeLa cell extract
T4 sequence (P12004 whole entry): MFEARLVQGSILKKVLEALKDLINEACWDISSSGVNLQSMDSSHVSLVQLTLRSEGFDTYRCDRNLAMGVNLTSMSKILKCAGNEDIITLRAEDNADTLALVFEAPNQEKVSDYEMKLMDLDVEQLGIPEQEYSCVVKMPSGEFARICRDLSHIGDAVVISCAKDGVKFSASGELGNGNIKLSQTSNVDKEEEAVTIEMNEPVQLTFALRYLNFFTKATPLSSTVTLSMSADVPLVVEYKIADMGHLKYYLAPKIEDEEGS

For experiment [5], the target named is T5, HeLa cell extract proteins (Homo sapiens, UniProt O15427).
T5 construct: endogenous in cells; host or cells: HeLa cell extract
T5 sequence (O15427 1-465): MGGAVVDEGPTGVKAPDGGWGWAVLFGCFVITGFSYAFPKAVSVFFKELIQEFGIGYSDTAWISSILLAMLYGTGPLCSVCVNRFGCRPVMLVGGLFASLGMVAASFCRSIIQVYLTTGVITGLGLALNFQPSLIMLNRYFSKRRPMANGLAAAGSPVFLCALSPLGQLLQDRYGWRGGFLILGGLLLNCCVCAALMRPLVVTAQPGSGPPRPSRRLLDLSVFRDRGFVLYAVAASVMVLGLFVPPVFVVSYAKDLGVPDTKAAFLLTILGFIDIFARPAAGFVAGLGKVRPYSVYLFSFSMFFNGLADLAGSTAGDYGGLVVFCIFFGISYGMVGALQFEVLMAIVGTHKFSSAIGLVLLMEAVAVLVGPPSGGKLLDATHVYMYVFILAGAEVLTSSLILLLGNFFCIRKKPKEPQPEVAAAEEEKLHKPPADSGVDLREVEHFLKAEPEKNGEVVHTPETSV

For `Nc1nc2cccc(-c3ccccc3)c2n1Cc1ccc(Cl)c(Cl)c1` [compound 3], the “fold changes relative to vehicle control” value came out at 1.25 in experiment [1] (HeLa, protein GMDS); 1.05 in experiment [2] (protein PECI, HeLa); 1.02 in experiment [3] (captured protein GEMIN4, HeLa); 0.77 in experiment [4] (protein PCNA, HeLa); 0.94 in experiment [5] (HeLa, protein SLC16A3).

Consider `NCCOCCOCC(=O)Nc1nc2ncc(CNc3ccc(C(=O)NC(CCC(=O)O)C(=O)O)cc3)nc2c(=O)[nH]1` (centres unmarked) [compound 6], for which the “fold changes relative to vehicle control” value in experiment [1] (HeLa, captured protein GMDS) came out at 0.98; in experiment [2] (HeLa, captured protein PECI) it was 0.96; in experiment [3] (HeLa, protein GEMIN4), 1.02; in experiment [4] (HeLa, captured protein PCNA), 1.47; in experiment [5] (HeLa, protein SLC16A3), 0.85.

Regarding `Nc1nc2[nH]cc(CCc3ccc(C(=O)N[C@@H](CCC(=O)O)C(=O)O)cc3)c2c(=O)[nH]1` [PTX, pemetrexed], the “fold changes relative to vehicle control” value stood at 1 in experiment [1]; 1.01 in experiment [2]; 0.94 in experiment [3]; 1.29 in experiment [4]; 0.85 in experiment [5].

Take `Nc1nc2c(c(=O)[nH]1)N(C=O)C(CNc1ccc(C(=O)N[C@@H](CCC(=O)O)C(=O)O)cc1)CN2` (some centres unmarked) [LEU, leucovorin]: the “fold changes relative to vehicle control” value in experiment [1] (HeLa, captured protein GMDS) is on record as 1; in experiment [2] (HeLa, captured protein PECI) it was 1.06; in experiment [3] (HeLa, protein GEMIN4), 0.93; in experiment [4] (HeLa, captured protein PCNA) it was 1.25; in experiment [5] (HeLa, protein SLC16A3), 0.96.

Take `CCCCCCOc1ccc(Cc2cnc(N)nc2N)cc1` [compound 1]: the “fold changes relative to vehicle control” value in experiment [1] (HeLa, protein GMDS) is 1.06; in experiment [2] (protein PECI, HeLa), 0.99; in experiment [3] (captured protein GEMIN4, HeLa), 0.88; in experiment [4] (protein PCNA, HeLa), 1.18; in experiment [5] (HeLa, protein SLC16A3) it was 0.83.

Take `NCCCNc1ccc(C(=O)NC(CCC(=O)O)C(=O)O)cc1` (centres unmarked) [compound 7]: the “fold changes relative to vehicle control” value is 1.12 in experiment [1] (HeLa, captured protein GMDS); 1.03 in experiment [2] (HeLa, captured protein PECI); 0.99 in experiment [3] (HeLa, protein GEMIN4); 1.02 in experiment [4] (HeLa, captured protein PCNA); 0.94 in experiment [5] (HeLa, protein SLC16A3).

In the case of `CCCCCCOc1cccc(Cc2cnc(N)nc2N)c1` [compound 2], the “fold changes relative to vehicle control” value is on record as 1.21 in experiment [1] (HeLa, protein GMDS); 0.82 in experiment [2] (protein PECI, HeLa); 0.92 in experiment [3] (captured protein GEMIN4, HeLa); 1.65 in experiment [4] (protein PCNA, HeLa); 0.94 in experiment [5] (HeLa, protein SLC16A3).
